Results as given in patent publication US8871753B2, “Macrocyclic compounds and their use as kinase inhibitors” (Incyte Corporation, priority 2008, dated 2014).

Columns and labels:
[1] = molecular target: T1, human JAK2 (a.a. 828-1132) (Homo sapiens, UniProt O60674); assay: In vitro JAK kinase assay (HTRF, phosphorylation of a biotinylated peptide), JAK2; format: biochemical; conditions: Table D1
T1 construct: JAK2 (a.a. 828-1132); His tag (N); made in house; host or cells: insect cells (baculovirus)
Description: (§1) The catalytic activity of JAK1, JAK2 or JAK3 was assayed by measuring the phosphorylation of a biotinylated peptide. The phosphorylated peptide was detected by homogenous time resolved fluorescence (HTRF). […] The ATP concentration in the reactions was 90 μM for JAK1, 30 μM for JAK2 and 3 μM for JAK3. Reactions were carried out at room temperature for 1 hr and then stopped with 20 μL 45 mM EDTA, 300 nM SA-APC, 6 nM Eu-Py20 in assay buffer (Perkin Elmer, Boston, Mass.). Binding to the Europium labeled antibody took place for 40 minutes and HTRF signal was measured on a Fusion plate reader (Perkin Elmer, Boston, Mass.).
(§2) The catalytic activity of JAK1, JAK2 or JAK3 was assayed by measuring the phosphorylation of a biotinylated peptide. The phosphorylated peptide was detected by homogenous time resolved fluorescence (HTRF). […] Reactions were carried out at room temperature for 1 hr and then stopped with 20 μL 45 mM EDTA, 300 nM SA-APC, 6 nM Eu-Py20 in assay buffer (Perkin Elmer, Boston, Mass.). Binding to the Europium labeled antibody took place for 40 minutes and HTRF signal was measured on a Fusion plate reader (Perkin Elmer, Boston, Mass.).

[2] = molecular target: T2, human JAK1 (a.a. 837-1142) (Homo sapiens, UniProt P23458); assay: In vitro JAK kinase assay (HTRF, phosphorylation of a biotinylated peptide), JAK1; format: biochemical; conditions: Table D1; read-out: JAK1 IC50
T2 construct: human JAK1 (a.a. 837-1142); His tag (N); made in house; host or cells: insect cells (baculovirus)
Description: as §1, §2

T2 sequence (P23458 849-1154): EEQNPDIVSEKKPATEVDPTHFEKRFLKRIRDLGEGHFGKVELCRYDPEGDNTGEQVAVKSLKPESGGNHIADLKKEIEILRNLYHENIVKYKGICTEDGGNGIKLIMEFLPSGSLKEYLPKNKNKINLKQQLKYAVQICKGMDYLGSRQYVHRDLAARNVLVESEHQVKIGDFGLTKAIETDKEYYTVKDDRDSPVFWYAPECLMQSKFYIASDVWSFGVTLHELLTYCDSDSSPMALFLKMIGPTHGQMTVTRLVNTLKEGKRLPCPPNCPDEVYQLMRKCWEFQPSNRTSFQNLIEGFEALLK
T1 sequence (O60674 828-1132): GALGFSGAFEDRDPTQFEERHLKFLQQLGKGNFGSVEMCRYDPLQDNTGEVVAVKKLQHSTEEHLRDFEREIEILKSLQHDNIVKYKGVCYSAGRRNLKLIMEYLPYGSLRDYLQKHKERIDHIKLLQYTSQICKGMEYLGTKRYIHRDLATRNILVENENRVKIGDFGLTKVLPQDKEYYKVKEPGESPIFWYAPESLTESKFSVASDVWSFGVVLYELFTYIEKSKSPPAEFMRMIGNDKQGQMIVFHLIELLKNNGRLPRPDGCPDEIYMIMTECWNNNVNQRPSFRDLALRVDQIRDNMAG

Compound	IC50 [1] [nM]	IC50 [2] [nM]
Cn1ccc(C(=O)N2CC[C@H](CC(=O)Nc3ccc4cc3CCc3cncc(c3)Nc3ncc(Cl)c(n3)N4)C2)n1 [Example D106, N-[6-Chloro-2,4,8,18,22-pentaazatetracyclo[14.3.1.1(3,7).1(9,13)]docosa-1(20),3(22),4,6,9(21),10,12,16,18-nonaen-12-yl]-2-{(3R)-1-[(1-methyl-1H-pyrazol-3-yl)carbonyl]pyrrolidin-3-yl}acetamide bis(trifluoroacetate)]	256	32
O=C(C[C@H]1CCN(C(=O)c2nccs2)C1)Nc1ccc2cc1CCc1cncc(c1)Nc1ncc(Cl)c(n1)N2 [Example D110, N-[6-Chloro-2,4,8,18,22-pentaazatetracyclo[14.3.1.1(3,7).1(9,13)]docosa-1(20),3(22),4,6,9(21),10,12,16,18-nonaen-12-yl]-2-[(3R)-1-(1,3-thiazol-2-ylcarbonyl)pyrrolidin-3-yl]acetamide bis(trifluoroacetate)]	222	22
CS(=O)(=O)N1CC[C@H](CC(=O)Nc2ccc3cc2CCc2cncc(c2)Nc2ncc(Cl)c(n2)N3)C1 [Example D112, N-[6-Chloro-2,4,8,18,22-pentaazatetracyclo[14.3.1.1(3,7).1(9,13)]docosa-1(20),3(22),4,6,9(21),10,12,16,18-nonaen-12-yl]-2-[(3R)-1-(methylsulfonyl)pyrrolidin-3-yl]acetamide bis(trifluoroacetate)]	142	9.9
N#Cc1cccc(NC(=O)N2CC[C@H](CC(=O)Nc3ccc4cc3CCc3cncc(c3)Nc3ncc(Cl)c(n3)N4)C2)c1 [Example D99, (3R)-3-(2-{[6-Chloro-2,4,8,18,22-pentaazatetracyclo[14.3.1.1(3,7).1(9,13)]docosa-1(20),3(22),4,6,9(21),10,12,16,18-nonaen-12-yl]amino}-2-oxoethyl)-N-(3-cyanophenyl)pyrrolidine-1-carboxamide bis(trifluoroacetate)]	107	15
CS(=O)(=O)N1CC[C@@H](CC(=O)Nc2ccc3cc2CCc2cncc(c2)Nc2ncc(Cl)c(n2)N3)C1 [Example D127, N-[6-Chloro-2,4,8,18,22-pentaazatetracyclo[14.3.1.1(3,7).1(9,13)]docosa-1(20),3(22),4,6,9(21),10,12,16,18-nonaen-12-yl]-2-[(3S)-1-(methylsulfonyl)pyrrolidin-3-yl]acetamide bis(trifluoroacetate)]	199	12
O=C(C[C@H]1CCN(C(=O)c2nc[nH]n2)C1)Nc1ccc2cc1CCc1cncc(c1)Nc1ncc(Cl)c(n1)N2 [Example D128, N-[6-Chloro-2,4,8,18,22-pentaazatetracyclo[14.3.1.1(3,7).1(9,13)]docosa-1(20),3(22),4,6,9(21),10,12,16,18-nonaen-12-yl]-2-[(3R)-1-(1H-1,2,4-triazol-3-ylcarbonyl)pyrrolidin-3-yl]acetamide bis(trifluoroacetate)]	199	21
O=C(C[C@@H]1CCN(C(=O)Nc2ccccc2)C1)Nc1ccc2cc1CCc1cncc(c1)Nc1ncc(Cl)c(n1)N2 [Example D113, (3S)-3-(2-{[6-Chloro-2,4,8,18,22-pentaazatetracyclo[14.3.1.1(3,7).1(9,13)]docosa-1(20),3(22),4,6,9(21),10,12,16,18-nonaen-12-yl]amino}-2-oxoethyl)-N-phenylpyrrolidine-1-carboxamide bis(trifluoroacetate)]	161	11
Cn1cc(C(=O)N2CC[C@@H](CC(=O)Nc3ccc4cc3CCc3cncc(c3)Nc3ncc(Cl)c(n3)N4)C2)cn1 [Example D122, N-[6-Chloro-2,4,8,18,22-pentaazatetracyclo[14.3.1.1(3,7).1(9,13)]docosa-1(20),3(22),4,6,9(21),10,12,16,18-nonaen-12-yl]-2-{(3S)-1-[(1-methyl-1H-pyrazol-4-yl)carbonyl]pyrrolidin-3-yl}acetamide bis(trifluoroacetate)]	500	43
O=C1c2ccccc2C(=O)N1CCS(=O)(=O)Nc1ccc2cc1CCc1cncc(c1)Nc1ncc(Cl)c(n1)N2 [Example D210, N-[6-Chloro-2,4,8,18,22-pentaazatetracyclo[14.3.1.1(3,7).1(9,13)]docosa-1(20),3(22),4,6,9(21),10,12,16,18-nonaen-12-yl]-2-(1,3-dioxo-1,3-dihydro-2H-isoindol-2-yl)ethanesulfonamide bis(trifluoroacetate)]	14	1
N#Cc1ccc(NC(=O)N2CC[C@@H](CC(=O)Nc3ccc4cc3CCc3cncc(c3)Nc3ncc(Cl)c(n3)N4)C2)cc1 [Example D114, (3S)-3-(2-{[6-Chloro-2,4,8,18,22-pentaazatetracyclo[14.3.1.1(3,7).1(9,13)]docosa-1(20),3(22),4,6,9(21),10,12,16,18-nonaen-12-yl]amino}-2-oxoethyl)-N-(4-cyanophenyl)pyrrolidine-1-carboxamide bis(trifluoroacetate)]	83	9
N#Cc1cccc(NC(=O)N2CC[C@@H](CC(=O)Nc3ccc4cc3CCc3cncc(c3)Nc3ncc(Cl)c(n3)N4)C2)c1 [Example D115, (3S)-3-(2-{[6-Chloro-2,4,8,18,22-pentaazatetracyclo[14.3.1.1(3,7).1(9,13)]docosa-1(20),3(22),4,6,9(21),10,12,16,18-nonaen-12-yl]amino}-2-oxoethyl)-N-(3-cyanophenyl)pyrrolidine-1-carboxamide bis(trifluoroacetate)]	163	19
Cc1cc(C(=O)N2CCC[C@H](CC(=O)Nc3ccc4cc3CCc3cncc(c3)Nc3ncc(Cl)c(n3)N4)C2)no1 [Example D209, N-[6-Chloro-2,4,8,18,22-pentaazatetracyclo[14.3.1.1(3,7).1(9,13)]docosa-1(20),3(22),4,6,9(21),10,12,16,18-nonaen-12-yl]-2-{(3R)-1-[(5-methylisoxazol-3-yl)carbonyl]piperidin-3-yl}acetamide bis(trifluoroacetate)]	462	65
Cn1cc(C(=O)N2CC[C@H](CC(=O)Nc3ccc4cc3CCc3cncc(c3)Nc3ncc(Cl)c(n3)N4)C2)cn1 [Example D107, N-[6-Chloro-2,4,8,18,22-pentaazatetracyclo[14.3.1.1(3,7).1(9,13)]docosa-1(20),3(22),4,6,9(21),10,12,16,18-nonaen-12-yl]-2-{(3R)-1-[(1-methyl-1H-pyrazol-4-yl)carbonyl]pyrrolidin-3-yl}acetamide bis(trifluoroacetate)]	185	25
Cc1cc(C(=O)N2CC[C@H](CC(=O)Nc3ccc4cc3CCc3cncc(c3)Nc3ncc(Cl)c(n3)N4)C2)no1 [Example D109, N-[6-Chloro-2,4,8,18,22-pentaazatetracyclo[14.3.1.1(3,7).1(9,13)]docosa-1(20),3(22),4,6,9(21),10,12,16,18-nonaen-12-yl]-2-{(3R)-1-[(5-methylisoxazol-3-yl)carbonyl]pyrrolidin-3-yl}acetamide bis(trifluoroacetate)]	189	16
Cn1cncc1C(=O)N1CC[C@H](CC(=O)Nc2ccc3cc2CCc2cncc(c2)Nc2ncc(Cl)c(n2)N3)C1 [Example D111, N-[6-Chloro-2,4,8,18,22-pentaazatetracyclo[14.3.1.1(3,7).1(9,13)]docosa-1(20),3(22),4,6,9(21),10,12,16,18-nonaen-12-yl]-2-{(3R)-1-[(1-methyl-1H-imidazol-5-yl)carbonyl]pyrrolidin-3-yl}acetamide tris(trifluoroacetate)]	689	61
